Reference: US20200397860A1, “SLIT AND BONE GROWTH MODULATION” (Cornell University, priority 2018, published 2020)

Key:
[1] = system: bone marrow endothelial progenitor outgrowth cells (EPOCs); assay: Matrigel tube formation assay; format: cell-based, mouse; conditions: EPOCs transduced with YAP shRNA
Method: Mouse bone marrow derived late-stage endothelial progenitor outgrowth cells (EPOCs) were obtained from BioChain (7030031) and cultured in growth medium (BioChain Z7030035) as described previously (Xie et al. 2014). Endothelial cell migration assay was set up in Trans well-24 well plates with 8-um pore filters. Briefly, 1×10^5 cells/well after 1-hour serum starvation were seeded in the upper chamber, then incubated with conditioned medium from osteoblasts and control in the lower chambers for a further 3 h. The cells in the upper surface of each filter were removed with cotton swabs. The cells that migrated into the lower surface were fixed with 4% PFA for 30 min and then stained with crystal violet. The cell numbers were quantified by counting a centered microscope field per each filter (5 wells for each condition). Endothelial cell wound healing assays were conducted in 12-well plates precoated with gelatin (Stemcell Technologies). 3×10^5 cells/well were plated overnight and stimulated with a wound in the form of a single linear scratch made with a yellow pipette tip. After gently washing the well twice, cells were cultured in medium with SLIT3 or vehicle. At 6 and 12 hours after injury, cells were stained by 0.5% crystal violet and photographed. The width of the wound area was quantitatively evaluated using ImageJ (see website at rsb.info.uih.gov/ij/download.html). Endothelial cell proliferation assays were conducted in 96-well plates pre-coated with gelatin (Stemcell Technologies). EPOCs (3×10^4 cells/well) were seeded in the medium with a serial dilution of SLIT3 protein or vehicle in plates. At 0, 24, 48 hours after seeding, cells were incubated with 10-fold diluted Alamar Blue solution (Thermo Fisher) and the supernatant was evaluated with a spectrophotometer (Thermo) (5 wells for each condition). Endothelial cell tube formation assay was conducted in 96-well plates pre-coated with Matrigel (BD). After 1 h serum starvation, EPOCs (3×10^4 cells/well) were seeded in conditioned medium dilution or control medium on polymerized Matrigel in plates. Alter 5 hours incubation at 37° C., the number of tube branches each well was observed and quantified by counting four random fields per well with microscopy (5 wells for each condition).

[2] = system: CD31^hiEMCN^hi endothelium; assay: Flow cytometry of skeletal CD31hiEMCNhi endothelium in femurs after IV injection; format: in vivo, mouse; conditions: 8-week-old B6 mice, twice weekly IV 1 mg/kg, 21 days, femur
Method: Femur and tibia were dissected from mutant mice and control groups after removing surrounding connective tissues. The metaphysis region and diaphysis regions of bone was crushed in Hanks Balanced Salt Solution (Life Technologies) containing 10 mM HOPES (pH 7.2) (CellGro) and enzymatically digested with 2.5 mg/mL Collagenase A (Roche) and 1 unit/mL Dispase II (Roche) for 15 minutes at 37° C. under gentle agitation. The resulting cell suspensions were filtered (40 μm), washed using PBS (pH 7.2) containing 0.5% BSA (Fraction V) and 2 mM EDTA. After washing, equal numbers of cells per mouse were blocked with Purified Rat Anti-Mouse CD16/CD32 (BD Biosciences) for 30 min on ice, then stained with APC-conjugated EMCN antibody (ebioscience 50-5851-80), PE-conjugated CD31 (ebioscience 12-0311-81). FITC-conjugated CD45 (Tonbo 35-0451), APC/Cy7-conjugated Ter119 (Biolegend 116223) and PerCP-Cy5.5-conjugated CD146 (BD Biosciences 562231) for 45 min on ice. After washing, cells were resuspended in PBS (pH 7.2) with 2 mM EDTA and 1 μg/mL 4-6,Diamidino-2-Phenylindole (DAPI) (live/dead exclusion) for analysis on an LSRII flow cytometer system (BD Biosciences) cytometer and analyzed using FlowJo software (TreeStar). Cell sorting was performed with a FACS Aria II SORP cell sorter (Becton Dickinson) at Weill Cornell Medical College, with exclusion of DAPI^+ cells and doublets. […]

[3] = system: murine ovariectomy (OVX) model of postmenopausal osteoporosis; assay: Ovariectomy (OVX) induced bone loss, prophylactic model; format: in vivo, mouse; conditions: L3 vertebrae
Method: Micro-CT (μCT) analysis was conducted on a Scanco Medical μCT 35 system at the Citigroup Biomedical Imaging Core using the previously described parameters. (Shim et al. 2013). μCT analysis was performed by an investigator blinded to the genotypes of the animals under analysis.
For histomorphometry, mice were injected with calcein (25 mg/kg, Sigma), and undecalcified sections of the lumbar vertebrae were stained using von Kossa and TRAP as described by Fukuda et al. (2013). Static and dynamic histomorphometric analysis was performed with using the Osteomeasure Analysis System (Osteometrics) following standard nomenclature as described (Dempster et al. 2013). Bone volume/total volume (BV/TV), bone formation rate/bone surface (BFR/BS, μm^3 […] yr^−1), mineral apposition rate (MM, um Day^−1), osteoblast surface/bone surface (Ob.S/BS, %) and osteoclast number/bone perimeter (No. OC/Bpm) were analyzed.
For the prophylactic model, 12-week-old female mice (JAX) were anesthetized and bilaterally ovariectomized or sham operated. Ovariectomized mice were given twice weekly intravenous injections of 1 mg per kg body weight of SLITS or vehicle or daily subcutaneous (sc) injections of 80 ug/kg PTH (1-34) for 6 weeks starting 2 weeks after ovariectomy. […] All mice were then randomly assigned to one of four groups: Sham, OVX+vehicle, OVX+SLITS and OVX+PTH. Three days after the last injection, all of the mice were euthanized and subjected to bone analysis as described earlier.

FGF2: FGF2, positive control inducer of tube formation [reference compound]
ability to induce tube formation after shRNA-mediated knockdown of YAP [1]: not

SLIT2: recombinant SLIT2 protein, SLIT family ligand
levels of skeletal CD31hiEMCNhi endothelium in vivo [2]: increased formation

PTH: parathyroid hormone PTH (1-34), daily subcutaneous injections, comparator in OVX model (SVSEIQLMHNLGKHLNSMERVEWLRKKLQDVHNF; Parathyroid hormone; UniProt P01270 32-65, looked up, fragment) [reference compound]
endosteal CD31hiEMCNhi endothelium after OVX [3]: reversed the attenuation
endosteal bone formation [3]: rescued
